Structures can show the parent of a compound that is named as a salt.
Target: T1, human NHE-1 (Homo sapiens, UniProt P19634)
T1 construct: expressed in transfected cells; host or cells: LAP-1 cells (parental line without endogenous NHE activity), stably transfected, G418 selection
Assay: FLIPR assay for NHE-1 inhibition by measurement of the recovery in pHi in transfected cell lines
Assay type: cell-based
Details: transfected LAP-1 cell line expressing human NHE-1, BCECF fluorescence, read-out: NHE1 inhibition IC50
Description: The NHE-1 inhibition IC50 [nM] was determined as follows:
FLIPR assay for determining NHE-1 inhibitors by measurement of the recovery in pHi in transfected cell lines which express human NHE-1
The assay is carried out in an FLIPR (fluorometric imaging plate reader) with black-walled 96-well microtiter plates with clear bases. […] [The growth medium for the transfected cells (Iscove+10% fetal calf serum) additionally contains G418 as selection antibiotic in order to ensure the presence of the transfected sequences.]
The actual assay starts with the removal of the growth medium and addition of 100 μl of loading buffer per well (5 μM BCECF-AM [2′,7′-bis(carboxyethyl)-5-(and -6-)carboxyfluorescein, acetoxymethyl ester] in 20 mM NH4Cl, 115 mM choline chloride, 1 mM MgCl2, 1 mM CaCl2, 5 mM KCl, 20 mM HEPES, 5 mM glucose; pH 7.4 [adjusted with KOH]). The cells are then incubated at 37° C. for 20 minutes. This incubation leads to loading of the cells with the fluorescent dye whose fluorescence intensity depends on pHi, and with NH4Cl which makes the cells slightly alkaline.
[The nonfluorescent dye precursor BCECF-AM is, as ester, membrane-permeable. The actual dye BCECF is not membrane-permeable but is liberated inside cells by esterases.]
After this incubation for 20 minutes, the loading buffer which contains NH4Cl and free BCECF-AM is removed by washing three times in a cell washer (Tecan Columbus) with in each case 400 μl of washing buffer (133.8 mM choline chloride, 4.7 mM KCl, 1.25 mM MgCl2, 1.25 mM CaCl2, 0.97 mM K2HPO4, 0.23 mM KH2PO4, 5 mM HEPES, 5 mM glucose; pH 7.4 [adjusted with KOH]). The residual volume remaining in the wells is 90 μl (50-125 μl possible). This washing step removes the free BCECF-AM and results, as a consequence of the removal of the external NH4^+ ions, in intracellular acidification (˜pHi 6.3-6.4).
Since the equilibrium of intracellular NH4^+ with NH3 and H^+ is disturbed by the removal of the extracellular NH4^+ and by the subsequent instantaneous passage of the NH3 through the cell membrane, the washing process results in H^+ remaining inside the cells, which is the cause of the intracellular acidification. This may eventually lead to cell death if it persists long enough.
It is important at this point that the washing buffer is sodium-free (<1 mM) because extracellular sodium ions would lead to an instantaneous recovery of the pHi through the activity of the cloned NHE isoforms.
It is likewise important for all the buffers used (loading buffer, washing buffer, recovery buffer) not to contain any HCO3^− ions, because the presence of bicarbonate would lead to activation of interfering bicarbonate-dependent pHi regulatory systems present in the parental LAP-1 cell line.
The microtiter plates with the acidified cells are then (up to 20 minutes after the acidification) transferred to the FLIPR. In the FLIPR, the intracellular fluorescent dye is excited by light with a wavelength of 488 nm generated by an argon laser, and the measured parameters (laser power, illumination time and aperture of the CCD camera incorporated in the FLIPR) are chosen so that the average fluorescence signal per well is between 30 000 and 35 000 relative fluorescence units.
The actual measurement in the FLIPR starts with a photograph being taken by the CCD camera every two seconds under software control. After ten seconds, the recovery of the intracellular pH is initiated by adding 90 μl of recovery buffer (133.8 mM NaCl, 4.7 mM KCl, 1.25 mM MgCl2, 1.25 mM CaCl2, 0.97 mM K2HPO4, 0.23 mM KH2PO4, 10 mM HEPES, 5 mM glucose; pH 7.4 [adjusted with NaOH]) by means of the 96-well pipettor incorporated in the FLIPR.
Positive control wells (100% NHE activity) are those to which pure recovery buffer is added, while negative controls (0% NHE activity) receive washing buffer. Recovery buffer with twice the concentration of test substance is added to all the other wells. Measurement in the FLIPR terminates after 60 measurements (two minutes). […]

T1 sequence (P19634 whole entry): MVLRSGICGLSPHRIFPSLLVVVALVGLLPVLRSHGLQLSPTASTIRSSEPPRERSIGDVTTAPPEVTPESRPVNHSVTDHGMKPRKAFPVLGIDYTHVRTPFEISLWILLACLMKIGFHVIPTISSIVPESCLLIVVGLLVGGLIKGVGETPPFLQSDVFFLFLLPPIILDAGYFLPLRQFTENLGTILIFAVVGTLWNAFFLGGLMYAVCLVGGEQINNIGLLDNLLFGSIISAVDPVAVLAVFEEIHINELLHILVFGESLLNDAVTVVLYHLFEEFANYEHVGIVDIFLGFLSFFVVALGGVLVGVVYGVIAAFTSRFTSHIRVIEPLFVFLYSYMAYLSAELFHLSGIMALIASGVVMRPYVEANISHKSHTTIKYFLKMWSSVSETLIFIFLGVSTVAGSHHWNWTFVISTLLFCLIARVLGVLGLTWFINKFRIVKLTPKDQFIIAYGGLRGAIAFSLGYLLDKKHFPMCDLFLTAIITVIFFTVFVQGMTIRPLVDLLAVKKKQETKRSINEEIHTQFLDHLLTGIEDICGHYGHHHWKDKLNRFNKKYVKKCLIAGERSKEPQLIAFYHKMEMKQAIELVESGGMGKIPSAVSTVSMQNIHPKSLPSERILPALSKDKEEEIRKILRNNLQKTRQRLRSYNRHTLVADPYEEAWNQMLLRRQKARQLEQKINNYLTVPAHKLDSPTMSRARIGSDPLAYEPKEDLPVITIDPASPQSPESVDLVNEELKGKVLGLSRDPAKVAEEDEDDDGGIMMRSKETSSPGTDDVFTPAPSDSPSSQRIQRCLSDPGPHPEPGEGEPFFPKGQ

| Structure (SMILES) | IC50 [nM] |
| --- | --- |
| NC(N)=NC(=O)c1ccc(S(F)(F)(F)(F)F)cc1 [Example 2, 4-Pentafluorosulfanylbenzoylguanidine, Hydrochloride] | 131 |
| N=C(N)NC(=O)c1ccc(S(F)(F)(F)(F)F)cc1Cl [Example 4, N-[2-Chloro-4-pentafluorosulfanylbenzoyl]guanidine] | 220 |
| Cc1ccc(S(F)(F)(F)(F)F)cc1C(=O)N=C(N)N [Example 6, N-(2-Methyl-5-pentafluorosulfanylbenzoyl)guanidine] | 20.3 |
| NC(N)=NC(=O)c1cccc(S(F)(F)(F)(F)F)c1 [Example 1, 3-Pentafluorosulfanylbenzoylguanidine, Hydrochloride] | 237 |
| N=C(N)NC(=O)c1ccc(S(F)(F)(F)(F)F)cc1Oc1ccc(F)cc1 [Example 5, N-[2-(4-Fluorophenoxy)-4-pentafluorosulfanylbenzoyl]guanidine] | 12000 |
| Cc1cc(S(F)(F)(F)(F)F)ccc1C(=O)N=C(N)N [Example 3, 4-Pentafluorosulfanyl-2-methylbenzoylguanidine] | 14.5 |

— US8404893B2, “Pentafluorosulfanylbenzoylguanidines, processes for their preparation, their use as medicaments or diagnostic aids, and medicaments comprising them” (Sanofi-Aventis Deutschland GmbH, priority 2002, dated 2013)
